Measured values taken from patent publication US20110189260A1, “USE OF ZINC CHELATORS TO INHIBIT BIOFILM FORMATION” (UNIVERSITY OF CINCINNATI, priority 2008, published 2011).
Where “and” joins values, the source holds several entries; their conditions need not be identical. Equal entries are not always repeated. Entries after “also recorded” stand apart in the source; their conditions may differ.

B1: MBP-Brpt1.5: soluble Brpt1.5 as a maltose-binding protein (MBP) fusion (protein)
chain: VDGDSITSTEEIPFDKKREFDPNLAPGTEKVVQKGEPGTKTITTPTTKNPLTGEKVGEGEPTEKITKQPVDEIVHYGGEQIPQGHKDEFDPNAPVDSKTEVPGKPGVKNPDTGEVVTPPVDDVTKYGPVDGDSITSTEEIPFDKKREFDPNLAPGTEKVVQKGEPGTKTITTPTTKNPLTGEKVGEGKSTEKVTKQPVDEIVEYGPTK
modifications: left off: large carriers

Columns and labels:
[1] = tested on: Methicillin-Resistant Staphylococcus epidermidis Strain RP62a; test: Biofilm formation assay in 96 well plates, crystal violet, absorbance at 570 nm (Example 8); assay type: cell-based; details: 18-24 hours, 37° C.
Procedure: S. epidermidis strain RP62a (ATCC 35984) was obtained as a glycerol stock from ATCC. 3 ml overnight cultures were grown in tryptic soy broth (TSB, BD Biomedical), shaking at 37° C., and cultures were diluted 1:200 in TSB for use in the biofilm assay.
Each chelator (prepared in Examples 1-6) was added directly to a 96 well microtiter plate in a series of dilutions. 20 μl of each stock solution (200, 400, 800, 1600, 3200, 6400, 13000, or 26000 μM chelator) was added to each well. 200 μl of the 1:200 dilution of RP62a bacterial culture (as previously specified) was added to each well. Controls with bacterial culture media only and bacterial culture media plus vehicle controls only (i.e., final concentrations 10 mM HCl, 10% ethanol, or 10 mM NaOH) were added to wells alone without chelator. The 96 well plates were then incubated 18-24 hours statically at 37° C. Media was aspirated by pipet and wells were washed twice with filtered water. The plates were dried by inversion for 1 hour, and stained with 0.1% crystal violet for 15 minutes. Crystal violet was then aspirated by pipet and washed once with filtered water. The plates were then read on a spectrophotometer at a wavelength of 570 nm. An absorbance greater than 0.1 indicates biofilm formation.

[2] = tested on: Staphylococcus aureus Strain COL; test: Biofilm formation assay in FBS pre-treated 96 well plates, crystal violet (Example 10); assay type: cell-based; details: 2% sucrose, 36-40 hours
Procedure: 3 ml overnight cultures were grown in blood-heart infusion broth (BHI) shaking at 37° C., where cultures were diluted 1:25 for use in the biofilm assay.
2% sucrose (20 μl from a 20% sucrose stock) was added to each well prior to the addition of the bacterial culture to promote biofilm formation. In addition, 96 well microtiter plates were pre-treated with fetal bovine serum (FBS) at 4° C. for at least 24 hours prior to use. The FBS was aspirated prior to addition of chelators and sucrose for the assay. […] 20 μl of each stock solution (200, 400, 800, 1600, 3200, 6400, 13000, or 26000 μM chelator) was added to each well. 200 μl of the 1:25 dilution of COL bacterial culture (as previously specified) was added to each well. Controls with bacterial culture media only and bacterial culture media plus vehicle controls only (i.e, final concentrations 10 mM HCl, 10% ethanol, and 10 mM NaOH) were added to wells alone without chelator. The 96 well plates were then incubated 36-40 hours statically at 37° C. Media was aspirated by pipet and wells were washed twice with filtered water. The plates were dried by inversion for 1 hour, and stained with 0.1% crystal violet for 15 minutes. Crystal violet was then aspirated by pipet and washed once with filtered water. The plates were then read on a spectrophotometer at a wavelength of 570 nm. An absorbance greater than 0.1 indicates biofilm formation.

[3] = tested on: Staphylococcus aureus Strain Rosenbach SA113; test: Biofilm formation assay in FBS pre-treated 96 well plates, crystal violet (Example 9); assay type: cell-based; details: SA113, 2% glucose, 36-40 hours
Procedure: In addition, 96 well microtiter plates were pre-treated with fetal bovine serum (FBS) at 4° C. for at least 24 hours prior to use. The FBS was aspirated prior to addition of chelators and glucose for the assay. […] The 96 well plates were then incubated 36-40 hours statically at 37° C. Media was aspirated by pipet and wells were washed twice with filtered water. The plates were dried by inversion for 1 hour, and stained with 0.1% crystal violet for 15 minutes. Crystal violet was then aspirated by pipet and washed once with filtered water. The plates were then read on a spectrophotometer at a wavelength of 570 nm.

[4] = tested on: Methicillin-Resistant Staphylococcus aureus Strain USA300; test: Biofilm formation assay in fibronectin pre-treated 96 well plates, crystal violet (Example 11); assay type: cell-based; details: USA300, 2% glucose, 36-40 hours
Procedure: S. aureus strain USA300 was obtained from Daniel Hassett (University of Cincinnati) as a glycerol stock. 3 ml overnight cultures were grown in blood-heart infusion broth (BHI) shaking at 37° C., where cultures were diluted 1:25 for use in the biofilm assay. 2% glucose (20 ul from a 20% glucose stock) was added to each well prior to the addition of bacterial culture to promote biofilm formation. In addition, 96 well microtiter plates were pre-treated with human fibronectin (BD biomedical purchased from Fisher scientific). The fibronectin was aspirated prior to addition of chelators and glucose for the assay. Each chelator (prepared in Examples 1-6) was added directly to a 96 well microtiter plate in a series of dilutions. 20 μl of each stock solution (200, 400, 800, 1600, 3200, 6400, 13000, or 26000 μM chelator) was added to each well. 200 μl of the 1:25 dilution of USA300 bacterial culture dilution (as previously specified) were added to each well. Controls with bacterial culture media only and bacterial culture media plus vehicle controls only (final concentrations 10 mM HCl, 10% ethanol, and 10 mM NaOH) were added to wells alone without chelator. The 96 well plates were then incubated 36-40 hours statically at 37° C. Media was aspirated by pipet and wells were washed twice with filtered water. The plates were dried by inversion for 1 hour, and stained with 0.1% crystal violet for 15 minutes. Crystal violet was then aspirated by pipet and washed once with filtered water. The plates were then read on a spectrophotometer at a wavelength of 570 nm. An absorbance greater than 0.1 indicates biofilm formation.

[5] = tested on: S. epidermidis RP62A biofilms; test: RP62A biofilms on polystyrene visualized with crystal violet (FIG. 3A, 3C, 4, 7, 8); assay type: cell-based; details: RP62A; for effect of divalent cation salt on biofilm inhibition by DTPA: up to 60 μM salt, FIG. 7
Procedure: (§1) FIG. 3. (A) S. epidermidis RP62A biofilms formed on polystyrene and were visualized with crystal violet; addition of the Zn^2+ chelator DTPA (≧30 μM) inhibits biofilm formation. Representative wells have been scanned (bottom). Untreated (“RP62A”) and vehicle (“HCl”) controls are shown. Error bars show standard deviation (* indicates p<0.05 relative to untreated control; n=3); (B) Methicillin-resistant S. aureus USA300 biofilms form on fibronectin-coated plates but are inhibited by addition of DTPA (≧30 μM). (*: p<0.05; n=4); (C) Addition of 5-20 μM ZnCl2 at a minimal inhibitory dose of DTPA (30 μM) rescues biofilm formation by RP62A.
FIG. 4. […] (*: p<0.05 relative to RP62A control at the relevant Zn^2+ concentration; n=3); (B) Dose response of biofilm inhibition by MBP-Brpt1.5 at a fixed 1 mM ZnCl2 concentration. (*: p<0.0005; n=3); (C) The “zinc zipper” model for intercellular adhesion in staphylococcal biofilms mediated by zinc-dependent self-association of G5 domains.
FIG. 7. […] All data at 30 μM DTPA show statistically significant decreases compared to no-treatment control (RP62A). Statistically significant increases over the 0 μM MnCl2/30 μM DTPA datapoint are marked with an asterisk (*).
To test the physiological role of Zn^2+-mediated G5 adhesion in the formation of staphylococcal biofilms, both S. epidermidis and S. aureus biofilms were grown in culture in the presence or absence of the Zn^2+ chelator diethylenetriaminepentaacetic acid (DTPA). DTPA was non-toxic at all concentrations tested (up to 100 μM). S. epidermidis strain RP62A formed robust biofilms when cultured in media alone, but biofilm growth was inhibited by non-toxic doses of DTPA (≧30 μM) (FIG. 3A).
To determine whether Zn^2+-dependent biofilm formation is specifically dependent upon G5 domain-mediated self-assembly, soluble Brpt1.5 was added to S. epidermidis RP62A biofilms as a maltose-binding protein (MBP) fusion. Because of the higher Zn^2+ concentrations required to induce dimerization in the short construct compared to full-length Aap, inhibition by MBP-Brpt1.5 was tested at Zn^2+ concentrations ranging up to 1 mM. RP62A biofilms were inhibited by soluble MBP-Brpt1.5 in the presence of 0.75 and 1 mM ZnCl2, whereas addition of MBP alone had no effect (FIG. 4A). […] Thus, addition of even a single intact zinc adhesion module in a soluble form is capable of inhibiting biofilm formation, highlighting the role of this domain as a Zn^2+-dependent adhesion module in staphylococcal biofilms.

[6] = tested on: Methicillin-resistant S. aureus USA300 biofilms; test: USA300 biofilms on fibronectin-coated plates (FIG. 3B, 3D); assay type: cell-based; details: USA300, at minimal inhibitory dose of DTPA (30 μM), FIG. 3D
Procedure: as §1
S. aureus strain USA300, which is responsible for recent epidemic outbreaks of community-acquired methicillin-resistant S. aureus (MRSA) infections, formed biofilms on fibronectin-coated plates. As observed for S. epidermidis, the MRSA biofilms were inhibited by Zn^2+ chelation (≧30 μM DTPA) (FIG. 3B). […] Like S. epidermidis, the MRSA strain USA300 could be rescued by the addition of 15-20 μM ZnCl2 (FIG. 3D). Importantly, at the minimal inhibitory concentration of DTPA (30 μM), biofilm growth by both staphylococcal species could be rescued by the addition of 5-20 μM ZnCl2; these Zn^2+ concentrations are similar to the physiological range in human plasma (12-16 μM resting concentration).

[7] = molecular target: Aap (Accumulation-associated protein) on Staphylococcus epidermidis strain RP62A cells (Staphylococcus epidermidis); test: cell-based or functional assay

Row | Molecule | chelator concentration at which biofilms were diminished but not cleared [1] | chelator concentration at which biofilms were inhibited (absorbance of 0.1 or less) [1] | chelator concentration at which biofilms were diminished but not cleared [2] | chelator concentration at which biofilms were diminished but not cleared [3] | chelator concentration at which biofilms were inhibited (absorbance of 0.1 or less) [3] | effect of divalent cation salt on biofilm inhibition by DTPA ([5]; 30 μM DTPA) | further results
1 | c1cnc2c(c1)ccc1cccnc12 [1,10-phenanthroline] | 80 µM | 640 µM | 80 µM | 320 µM | 1300 µM | – | chelator concentration above which biofilms were inhibited (absorbance of 0.1 or less) [2]: > 320 µM; chelator concentration above which biofilms were inhibited (absorbance of 0.1 or less) [4]: > 1.3 mM; chelator concentration at which biofilms were diminished but not cleared [4]: 160 µM
2 | [Ca+2].[Cl-].[Cl-] [CaCl2] | – | – | – | – | – | does not reverse; also recorded: no effect | –
3 | CCN(CC)C(=S)S [DEDTC, diethyldithiocarbamate] | 20 µM | 1300 µM | 20 µM | 80 µM | 80 µM | – | chelator concentration above which biofilms were inhibited (absorbance of 0.1 or less) [2]: > 80 µM
4 | O=C(O)CNCCNCC(=O)O [EDDA, ethylenediamine-N,N′-diacetic acid] | 80 µM | – | 160 µM | 20 µM | 640 µM | – | –
5 | O=C(O)CN(CCN(CC(=O)O)CC(=O)O)CC(=O)O [EDTA, ethylenediaminetetra-acetic acid] | 40 µM | 320 µM | 20 µM | 320 µM | – | – | chelator concentration above which biofilms were inhibited (absorbance of 0.1 or less) [2]: > 160 µM; chelator concentration above which biofilms were inhibited (absorbance of 0.1 or less) [4]: > 2.6 mM; chelator concentration at which biofilms were diminished but not cleared [4]: 1300 µM
6 | [Cl-].[Cl-].[Mg+2] [MgCl2] | – | – | – | – | – | does not reverse; also recorded: no effect | –
7 | [Cl][Mn][Cl] [MnCl2] | – | – | – | – | – | partial rescue | concentration that effected partial rescue of biofilm formation ([5]; 30 μM DTPA, FIG. 7D): ≥ 10 µM
8 | [Cl-].[Cl-].[Sr+2] [SrCl2] | – | – | – | – | – | does not reverse; also recorded: no effect | –
9 | c1ccc(CN(CCN(Cc2ccccn2)Cc2ccccn2)Cc2ccccn2)nc1 [TPEN, N,N,N′,N′-tetrakis(2-pyrdiylmethyl)ethylenediamine] | – | 20 µM | – | 20 µM | 40 µM | – | chelator concentration at which biofilms were diminished but not cleared [4]: 20 µM
10 | [Cl-].[Cl-].[Zn+2] [ZnCl2] | – | – | – | – | – | – | concentration that rescues biofilm formation [6]: 15 to 20 µM; concentration that rescues biofilm formation ([5]; at minimal inhibitory dose of DTPA (30 μM), FIG. 3C): 5 to 20 µM
11 | MBP-Brpt1.5 (soluble Brpt1.5 as a maltose-binding protein fusion) (from UniProt Q8CQD9 1089-1296) | – | – | – | – | – | – | concentration that completely abolished RP62A biofilm formation at 1 mM ZnCl2 [7]: 10 µM and 22 µM
12 | B1 | – | – | – | – | – | – | inhibition of biofilms by soluble protein ([5]; fixed 750 μM ZnCl2, FIG. 8): Dose-dependent biofilm inhibition; concentration that completely abolished biofilm formation ([5]; fixed 1 mM ZnCl2, FIG. 4B): 10 to 22 µM; inhibition of biofilms by soluble protein ([5]; in the presence of 0.75-1 mM ZnCl2, FIG. 4A): inhibits RP62A biofilms in a dose-dependent manner; also recorded: inhibited
